Results: ChEMBL document CHEMBL4411307, “N,N'-diaryl-bishydrazones in a biphenyl platform: Broad spectrum antifungal agents” (Eur J Med Chem, 2019)
Converted amounts (≈) assume the structure as drawn. The source made the active and inactive calls. No cut-off for these calls is given here.

Tests used:
[1] = Selectivity index, ratio of CC50 for human A549 cells to MIC for fluconazole/ITC-susceptible Candida albicans ATCC MYA-2876; format: toxicity; settings: read-out: Selectivity Index
[2] = Selectivity index, ratio of compound concentration showing <20 to <30% hemolysis in mouse RBC to MIC for fluconazole/ITC-resistant Candida albicans ATCC MYA-1003; format: toxicity; settings: mouse red blood cells (RBC), read-out: Selectivity Index
Candida albicans [3] = test: Fungicidal activity against fluconazole/ITC-resistant Candida albicans ATCC 10231 assessed as reduction in fungal growth at 0.5 to 2 times MIC incubated for 24 hrs followed by replating on PDA plates measured after 48 hrs Time-Kill assay; format: functional, organism-based
[4] = Selectivity index, ratio of CC50 for human A549 cells to MIC for Candida parapsilosis ATCC 22019; format: toxicity; settings: read-out: Selectivity Index
Candida albicans [5] = test: Antifungal activity against fluconazole/ITC-susceptible Candida albicans ATCC MYA-2876 measured after 48 hrs by CLSI M27-A3 protocol based method; format: functional; settings: ATCC MYA-2876, 48 h
[6] = Selectivity index, ratio of CC50 for human A549 cells to MIC for Aspergillus flavus ATCC MYA-3631; format: toxicity; settings: read-out: Selectivity Index
[7] = Selectivity index, ratio of compound concentration showing <20 to <30% hemolysis in mouse RBC to MIC for Candida glabrata ATCC 2001; format: toxicity; settings: mouse red blood cells (RBC), read-out: Selectivity Index
Candida albicans [8] = test: Antifungal activity against fluconazole/ITC-resistant Candida albicans ATCC MYA-1003 measured after 48 hrs by CLSI M27-A3 protocol based method; format: functional; settings: ATCC MYA-1003, 48 h
[9] = Selectivity index, ratio of CC50 for human A549 cells to MIC for Aspergillus nidulans ATCC 38163; format: toxicity; settings: read-out: Selectivity Index
Listeria monocytogenes = test: Antibacterial activity against Listeria monocytogenes; format: functional, organism-based
[10] = Selectivity index, ratio of CC50 for human A549 cells to MIC for Candida glabrata ATCC 2001; format: toxicity; settings: read-out: Selectivity Index
Candida albicans [11] = test: Antifungal activity against fluconazole/ITC-resistant Candida albicans ATCC 10231 measured after 48 hrs by CLSI M27-A3 protocol based method; format: functional; settings: ATCC 10231, 48 h
Candida albicans [12] = test: Selectivity ratio of MIC50 for antibiofilm activity against fluconazole/ITC-resistant Candida albicans ATCC 10231 assessed as reduction in sessile growth to MIC for fluconazole/ITC-resistant Candida albicans ATCC 10231; format: functional
[13] = target: Voltage-gated inwardly rectifying potassium channel KCNH2 (Homo sapiens, UniProt Q12809); test: Inhibition of [3H]-dofetilide binding to human ERG expressed in HEK293 cell membranes measured after 1 hr by liquid scintillation counting method
[14] = Hemolytic activity in mouse RBC at 1.95 ug/ml after 1 hr relative to control; format: ADME, cell-based, Erythrocyte; settings: red blood cells (erythrocytes), read-out: Activity
[15] = Selectivity index, ratio of compound concentration showing <20 to <30% hemolysis in mouse RBC to MIC for fluconazole/ITC-resistant Candida albicans ATCC 90819; format: toxicity; settings: red blood cells (erythrocytes), read-out: Selectivity Index
Pichia kudriavzevii = test: Antifungal activity against Candida krusei ATCC 6258 measured after 48 hrs by CLSI M27-A3 protocol based method; format: functional; settings: ATCC 6258, 48 h
Candida albicans [16] = test: Antifungal activity against fluconazole/ITC-resistant Candida albicans ATCC MYA-1237 measured after 48 hrs by CLSI M27-A3 protocol based method; format: functional; settings: ATCC MYA-1237, 48 h
[17] = Selectivity index, ratio of CC50 for human A549 cells to MIC for fluconazole/ITC-resistant Candida albicans ATCC 90819; format: toxicity; settings: read-out: Selectivity Index
Candida albicans [18] = test: Antifungal activity against fluconazole/ITC-resistant Candida albicans ATCC 64124 measured after 48 hrs by CLSI M27-A3 protocol based method; format: functional; settings: ATCC 64124, 48 h
[19] = Selectivity index, ratio of CC50 for human A549 cells to MIC for Aspergillus terreus ATCC MYA-3633; format: toxicity; settings: read-out: Selectivity Index

Voltage-gated inwardly rectifying potassium channel KCNH2, sequence (Q12809 whole entry): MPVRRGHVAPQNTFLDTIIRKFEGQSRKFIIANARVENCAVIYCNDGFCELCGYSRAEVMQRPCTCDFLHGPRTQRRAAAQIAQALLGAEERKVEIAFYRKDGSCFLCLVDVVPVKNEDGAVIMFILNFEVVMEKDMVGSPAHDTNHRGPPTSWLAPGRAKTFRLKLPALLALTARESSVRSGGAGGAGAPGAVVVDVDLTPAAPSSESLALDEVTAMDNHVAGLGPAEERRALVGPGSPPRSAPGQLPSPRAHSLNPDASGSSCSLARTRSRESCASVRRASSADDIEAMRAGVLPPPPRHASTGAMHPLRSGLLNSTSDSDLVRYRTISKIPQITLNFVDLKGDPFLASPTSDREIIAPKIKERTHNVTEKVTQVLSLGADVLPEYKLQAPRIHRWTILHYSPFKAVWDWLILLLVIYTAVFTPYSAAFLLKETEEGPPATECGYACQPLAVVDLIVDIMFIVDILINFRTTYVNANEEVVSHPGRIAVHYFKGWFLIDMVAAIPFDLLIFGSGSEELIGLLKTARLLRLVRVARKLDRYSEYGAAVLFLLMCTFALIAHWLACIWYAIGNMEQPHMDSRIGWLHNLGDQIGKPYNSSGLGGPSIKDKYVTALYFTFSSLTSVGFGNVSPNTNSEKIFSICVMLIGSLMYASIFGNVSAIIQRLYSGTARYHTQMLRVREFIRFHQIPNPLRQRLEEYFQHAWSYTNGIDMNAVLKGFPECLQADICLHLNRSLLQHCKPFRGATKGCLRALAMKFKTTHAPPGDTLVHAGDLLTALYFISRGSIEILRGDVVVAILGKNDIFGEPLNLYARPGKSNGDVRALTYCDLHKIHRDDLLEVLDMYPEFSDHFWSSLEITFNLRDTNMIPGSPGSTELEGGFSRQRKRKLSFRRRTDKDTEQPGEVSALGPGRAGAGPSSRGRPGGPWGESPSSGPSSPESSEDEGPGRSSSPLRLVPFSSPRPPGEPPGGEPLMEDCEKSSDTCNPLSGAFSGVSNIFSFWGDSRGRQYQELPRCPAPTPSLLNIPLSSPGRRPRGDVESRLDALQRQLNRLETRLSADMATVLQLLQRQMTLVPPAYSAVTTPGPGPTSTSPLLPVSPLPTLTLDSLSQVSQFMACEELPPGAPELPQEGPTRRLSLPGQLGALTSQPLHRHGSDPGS

For C/C(=N\Nc1ccc(F)cc1)c1ccc(-c2ccc(/C(C)=N/Nc3ccc(F)cc3)cc2)cc1, the selectivity ratio [1] was 4.3, the selectivity ratio [2] was 1 to 32 and the Activity (Candida albicans [3]) was “Active”. The selectivity ratio [4] was 1.1, the MIC (Candida albicans [5]) was 3.9 µg/mL (≈ 8.58 µM) and the selectivity ratio [6] was 0.5. For the same molecule, the selectivity ratio [7] was 1 to 32, the MIC (Candida albicans [8]) was 7.8 µg/mL (≈ 17.2 µM) and the selectivity ratio [9] was 2.1. The Activity (Listeria monocytogenes) was “inactive”, the selectivity ratio [10] was 1.1 and the MIC (Candida albicans [11]) was 1.95 µg/mL (≈ 4.29 µM). For the same molecule, the selectivity ratio (Candida albicans [12]) was 4, the IC50 [13] was over 30 µM and the hemolysis at 1 h, 1.95 ug/ml [14] was 2.6%. The selectivity ratio [15] was 1 to 32, the MIC (Pichia kudriavzevii) was 1.95 µg/mL (≈ 4.29 µM) and the MIC (Candida albicans [16]) was 7.8 µg/mL (≈ 17.2 µM). The selectivity ratio [17] was 2.1, the MIC (Candida albicans [18]) was 3.9 µg/mL (≈ 8.58 µM) and the selectivity ratio [19] was 0.5.
